What was measured:
[1] = Solubility of sulfur species in p-xylene, chlorobenzene and carbon disulfide (sulfur content of equilibrated supernatant by Uniquant); assay type: physicochemical
Description: Fifty grams of p-xylene was added to each of three identical 100-milliliter jacketed glass vessels fitted with a circulating heating bath, cooling water condenser, magnetic stir bar and stir plate, and nitrogen purge. All vessels were heated to the desired temperature, and cyclooctasulfur, cyclododecasulfur (prepared as in Example 2), and unoiled commercial crystalline polymeric sulfur (Crystex™) was added in sufficient quantities to each of the glass vessels to allow undissolved solids to remain after dissolution and equilibration of the mixture. The equilibration period typically lasted 2 to 8 hours, during which the contents of the vessel were maintained at the desired temperature and stirred continuously. Upon equilibration, supernatant liquid was withdrawn from the vessels via a heated fritted glass pipette (heated to the same temperature as the solution). The supernatants were analyzed by Uniquant to determine sulfur content, indicating the solubility of the sulfur species at the vessel temperature. Similar experiments were conducted for carbon disulfide and chlorobenzene for each of the three solutes.

[2] = Thermal decomposition in p-xylene at 115° C. (sulfur content of supernatant by Uniquant); assay type: physicochemical; conditions: for Content of sulfur in the p-xylene solvent: 115° C.
Description: The purpose of this experiment was to determine the rate that polymeric sulfur thermally decomposes into cyclooctasulfur in p-xylene. Polymeric sulfur is essentially insoluble in p-xylene, except when the polymer decomposes into cyclooctasulfur. Thus, the sulfur content in the p-xylene is a measure of the amount of polymeric sulfur that has decomposed to cyclooctasulfur. In this experiment, 50.32 grams of p-xylene were added to a 100-milliliter jacketed glass vessels fitted with a circulating heating bath, cooling water condenser, magnetic stir bar and stir plate, and nitrogen purge. The p-xylene was heated to 115° C. and 2.03 grams of unoiled commercial crystalline polymeric sulfur (Crystex™) was added while stirring. Periodically samples of the supernatant liquid were withdrawn from the vessel via a heated fritted glass pipette (heated to the same temperature as the solution). These supernatant samples were analyzed by Uniquant to determine sulfur content. The sulfur content was used to calculate the amount of polymeric sulfur remaining undissolved and undecomposed to cyclooctasulfur. After 60 and 75 minutes at 115° C., about 85% and essentially 100% respectively, of the polymeric sulfur had been converted into cyclooctasulfur.
The equipment and procedure used in Example 22 for measurement of the decomposition of polymeric sulfur was used to measure the decomposition of cyclododecasulfur in para-xylene. Two grams of purified cyclododecasulfur (produced by a procedure in the fashion of Example 2) was heated and stirred in 50.0 grams of p-xylene in a 100-milliliter jacketed glass vessels fitted with a circulating heating bath, cooling water condenser, magnetic stir bar and stir plate, and nitrogen purge. After 60, 75, and 120 minutes at 115° C., the content of sulfur in the p-xylene solvent was found by Uniquant to be about 0.4 wt % in each case, similar to the solubility of cyclododecasulfur in p-xylene at 115° C. (see Example 21). Upon cooling of the p-xylene, filtration, and drying of the recovered solids overnight in a vacuum oven at room temperature and 0.067 MPa (absolute), greater than 97% of the cyclododecasulfur input weight of solids was recovered.

Row | Structure (SMILES) | Solubility in weight % of solute in solvent ([1]; CS2, 22 ° C.) | Solubility in weight % of solute in solvent ([1]; CS2, 45 ° C.) | Solubility in weight % of solute in solvent ([1]; Cl-benzene, 45 ° C.) | Solubility in weight % of solute in solvent ([1]; Cl-benzene, 115 ° C.) | Solubility in weight % of solute in solvent ([1]; P-xylene, 45 ° C.) | Solubility in weight % of solute in solvent ([1]; P-xylene, 115 ° C.) | Input weight of solids recovered after heating ([2]; after 120 minutes at 115° C. in p-xylene, cooling, filtration and drying) | Fraction decomposed/converted to cyclooctasulfur ([2]; mixture of polymeric sulfur and cyclododecasulfur in p-xylene at 115° C. for two hours) | Content of sulfur in the p-xylene solvent ([2]; 60 minutes) | Content of sulfur in the p-xylene solvent ([2]; 75 minutes) | Content of sulfur in the p-xylene solvent ([2]; 120 minutes) | Solubility in weight % of solute in solvent ([1]; Cl-benzene, 22 ° C.) | Solubility in weight % of solute in solvent ([1]; P-xylene, 22 ° C.)
1 | S1SSSSSSSSSSS1 [Cyclododecasulfur, cyclododecasulfur] | 0.2 wt % | 0.5 wt % | 0.015 wt % | 0.44 wt % | <0.05 wt % | 0.4 wt % | greater than 97% | less than 3% | about 0.4 wt % | about 0.4 wt % | about 0.4 wt % | – | –
2 | S1SSSSSSS1 [Cyclooctasulfur, cyclooctasulfur, reference compound] | 32 wt % | 48 wt % | 6.2 wt % | – | 5.6 wt % | – | – | – | – | – | – | 2.4 wt % | 2.3 wt %

— patent publication US20200216316A1, “METHOD FOR THE MANUFACTURE OF CYCLODODECASULFUR” (EASTMAN CHEMICAL COMPANY, priority 2016, published 2020)
